In patent US8710091B2, “Imidazolidine-2,4-dione derivatives, and use thereof as a cancer drug” (Ipsen Pharma S.A.S., priority 2009, dated 2014):

Columns and labels:
LNCaP cells = test: Anti-proliferative activity on LNCaP in complete medium (WST-1); assay type: cell-based; conditions: Homo sapiens, 144 h, 144 h incubation, read-out: IC50 on the LNCaP cells in culture (concentration inhibiting cell proliferation by 50%)
Method: The anti-proliferative activity of the compounds of the present invention is determined on LNCaP in complete medium by applying the following experimental procedure:
The LNCaP cell type (ATCC, 1740) originating from a prostate carcinoma expressing the androgen receptor, this line is hormone-dependent.
Maintenance of the LNCaP line is carried out in complete culture medium: RPMI, 10% of foetal calf serum, 2 mM glutamine, 100 U/ml penicillin, 0.1 mg/ml of streptomycin and 0.01M HEPES, 1 mM sodium pyruvate, 40% of D-glucose. • Seeding the plates:
The LNCaP line is seeded at 20,000 cells/well in 90 μl of complete medium in 96-well plates coated with poly-D-lysine (Biocoat, Costar). • Treatment of the cells: 24 h after the seeding, the cells are treated with 10 μl/well of compound diluted in the culture medium. Experiments of the effect of doses of the compound are carried out on a scale of 1 nM to 100 µM. The concentrations used are the following: 1 nM/10/30/100/300/1000/3000/10,000/100,000 nM. Testosterone (SIGMA T1500) is used as a reference and tested at the same concentrations. The cells are incubated for 144 h at 37° C., 5% CO2. • Reading: On D6, 10 μL of the “WST-1 cell proliferation” reagent (Roche ref 1644807) is added to each well. After incubation for 2 hours at 37° C., 5% CO2, the absorbance at 450 nm is measured by spectrophotometry (Envision, Perkin Elmer). • Results: The experiments are carried out in duplicate and the best compounds are tested twice. […] 2. Antiproliferative Activity on LNCaP in Medium without Steroids: […]

DU145 cells = test: Antiproliferative activity on DU-145 in complete medium (WST-1); assay type: cell-based; conditions: Homo sapiens, 144 h incubation, read-out: IC50 on the DU145 cells in culture (concentration inhibiting cell proliferation by 50%)
Method: The anti-proliferative activity of the compounds of the present invention is determined on DU-145 in complete medium.
Maintenance of the DU-145 line is carried out in DMEM, 10% of foetal calf serum, 2 mM of glutamine, 100 U/ml of penicillin, 0.1 mg/ml of streptomycin. • Seeding the plates: • The DU145 line is seeded at 400 or 800 cells/well in 90 μl of DMEM complete medium in 96-well plates (TPP). • Treatment of the cells: 24 h after the seeding, the cells are treated with 10 μl/well of compound diluted in the culture medium. Experiments showing the dose-effect of the compound are carried out on a scale of 1 nM to 100 μM. The concentrations used are the following: 1 nM/10/30/100/300/1000/3000/10,000/100,000 nM. The cells are incubated for 144 h at 37° C., 5% CO2. • Reading: On D6, 10 μL, of cell proliferation reagent WST-1 (Roche ref 1644807) is added to each well. After incubation for 2 to 4 hours at 37° C., 5% CO2, the absorbance at 450 nm is measured by spectrophotometry (Envision, Perkin Elmer). • Results: The experiments are carried out in duplicate and the best compounds are tested twice. […] 4. Measurement of the Disappearance of the Androgen Receptor

IC50 (LNCaP cells)	IC50 (DU145 cells)	Compound
< 2 µM	> 10 µM	CC1(C)C(=O)N(c2ccc([N+](=O)[O-])c(C(F)(F)F)c2)C(=O)N1CCCCCCCCCSCCCC(F)(F)C(F)(F)F [Example 1, 5,5-dimethyl-3-[4-nitro-3-(trifluoromethyl)phenyl]-1-{9-[(4,4,5,5,5-pentafluoropentyl)thio]nonyl}imidazolidine-2,4-dione]
–	> 10 µM	CC1(C)C(=O)N(c2ccc([N+](=O)[O-])c(C(F)(F)F)c2)C(=O)N1CCCCCCCCC[S+]([O-])CCCC(F)(F)C(F)(F)F (stereo not drawn) [Example 2, 5,5-dimethyl-3-[4-nitro-3-(trifluoromethyl)phenyl]-1-{9-[(4,4,5,5,5-pentafluoropentyl)sulphinyl]nonyl}imidazolidine-2,4-dione]
< 2 µM	> 10 µM	CC1(C)C(=O)N(c2ccc([N+](=O)[O-])c(C(F)(F)F)c2)C(=O)N1CCCCCCCCCS(=O)(=O)CCCC(F)(F)C(F)(F)F [Example 3, 5,5-dimethyl-3-[4-nitro-3-(trifluoromethyl)phenyl]-1-{9-[(4,4,5,5,5-pentafluoropentyl)sulphonyl]nonyl}imidazolidine-2,4-dione]
< 2 µM	> 10 µM	CC1(C)C(=O)N(c2ccc([N+](=O)[O-])c(C(F)(F)F)c2)C(=O)N1CCCCCCCC[S+]([O-])CCCC(F)(F)C(F)(F)F (stereo not drawn) [Example 7, 5,5-dimethyl-3-[4-nitro-3-(trifluoromethyl)phenyl]-1-{8-[(4,4,5,5,5-pentafluoropentyl)sulphinyl]octyl}imidazolidine-2,4-dione]
–	> 10 µM	CC1(C)C(=O)N(c2ccc([N+](=O)[O-])c(C(F)(F)F)c2)C(=O)N1CCCCCCCCCCSCCCC(F)(F)C(F)(F)F [Example 8, 5,5-dimethyl-3-[4-nitro-3-(trifluoromethyl)phenyl]-1-{10-[(4,4,5,5,5-pentafluoropentyl)thio]decyl}imidazolidine-2,4-dione]
–	> 10 µM	CC1(C)C(=O)N(c2ccc([N+](=O)[O-])c(C(F)(F)F)c2)C(=O)N1CCCCCCCCCC[S+]([O-])CCCC(F)(F)C(F)(F)F (stereo not drawn) [Example 9, 5,5-dimethyl-3-[4-nitro-3-(trifluoromethyl)phenyl]-1-{10-[(4,4,5,5,5-pentafluoropentyl)sulphinyl]decyl}imidazolidine-2,4-dione]
< 2 µM	> 10 µM	CC1(C)C(=O)N(c2ccc([N+](=O)[O-])c(C(F)(F)F)c2)C(=O)N1CCCCCCCCCCC[S+]([O-])CCCC(F)(F)C(F)(F)F (stereo not drawn) [Example 11, 5,5-dimethyl-3-[4-nitro-3-(trifluoromethyl)phenyl]-1-{11-[(4,4,5,5,5-pentafluoropentyl)sulphinyl]undecyl}imidazolidine-2,4-dione]
–	> 10 µM	CC1(C)C(=O)N(c2ccc(N)c(C(F)(F)F)c2)C(=O)N1CCCCCCCCCSCCCC(F)(F)C(F)(F)F [Example 16, 3-[4-amino-3-(trifluoromethyl)phenyl]-5,5-dimethyl-1-{9-[(4,4,5,5,5-pentafluoropentyl)thio]nonyl}imidazolidine-2,4-dione]
< 2 µM	> 10 µM	CC1(C)C(=O)N(c2ccc(C(N)=O)c(C(F)(F)F)c2)C(=O)N1CCCCCCCCC[S+]([O-])CCCC(F)(F)C(F)(F)F (stereo not drawn) [Example 22, 4-(4,4-dimethyl-2,5-dioxo-3-{9-[(4,4,5,5,5-pentafluoropentyl)sulphinyl]nonyl}imidazolidin-1-yl)-2-(trifluoromethyl)benzamide]
–	> 10 µM	Cc1cc(N2C(=O)N(CCCCCCCCC[S+]([O-])CCCC(F)(F)C(F)(F)F)C(C)(C)C2=O)ccc1N (stereo not drawn) [Example 26, 3-(4-amino-3-methylphenyl)-5,5-dimethyl-1-{9-[(4,4,5,5,5-pentafluoropentyl)sulphinyl]nonyl}imidazolidine-2,4-dione]
–	> 10 µM	CC1(C)C(=O)N(c2ccc([N+](=O)[O-])cc2C(F)(F)F)C(=O)N1CCCCCCCCC[S+]([O-])CCCC(F)(F)C(F)(F)F (stereo not drawn) [Example 35, 5,5-dimethyl-3-[4-nitro-2-(trifluoromethyl)phenyl]-1-{9-[(4,4,5,5,5-pentafluoropentyl)sulphinyl]nonyl}imidazolidine-2,4-dione]
–	> 10 µM	CC1(C)C(=O)N(c2ccc([N+](=O)[O-])c(C(F)(F)F)c2)C(=O)N1CCOCCOCCSCCCC(F)(F)C(F)(F)F [Example 36, 5,5-dimethyl-3-[4-nitro-3-(trifluoromethyl)phenyl]-1-[2-(2-{2-[(4,4,5,5,5-pentafluoropentyl)sulphanyl]ethoxy}ethoxy)ethyl]imidazolidine-2,4-dione]
–	> 10 µM	CC(=O)Nc1ccc(N2C(=O)N(CCOCCOCCSCCCC(F)(F)C(F)(F)F)C(C)(C)C2=O)cc1C(F)(F)F [Example 38, N-[4-{4,4-dimethyl-2,5-dioxo-3-[2-(2-{2-[(4,4,5,5,5-pentafluoropentyl)sulphanyl]ethoxy}ethoxy)ethyl]imidazolidin-1-yl}-2-(trifluoromethyl)phenyl]acetamide]
–	> 10 µM	CC(=O)Nc1ccc(N2C(=O)N(CCOCCOCC[S+]([O-])CCCC(F)(F)C(F)(F)F)C(C)(C)C2=O)cc1C(F)(F)F (stereo not drawn) [Example 39, N-[4-{4,4-dimethyl-2,5-dioxo-3-[2-(2-{2-[(4,4,5,5,5-pentafluoropentyl)sulphinyl]ethoxy}ethoxy)ethyl]imidazolidin-1-yl}-2-(trifluoromethyl)phenyl]acetamide]
–	> 10 µM	CC1(C)C(=O)N(c2ccc([N+](=O)[O-])c(C(F)(F)F)c2)C(=O)N1CCCCCCCCC/S(CCCC(F)(F)C(F)(F)F)=N/C(=O)C(F)(F)F (stereo not drawn) [Example 44, N-[(1Z)-(9-{5,5-dimethyl-3-[4-nitro-3-(trifluoromethyl)phenyl]-2,4-dioxoimidazolidin-1-yl}nonyl)(4,4,5,5,5-pentafluoropentyl)-λ^4-sulphanylidene]-2,2,2-trifluoroacetamide]
< 2 µM	–	CC1(C)C(=O)N(c2ccc([N+](=O)[O-])c(C(F)(F)F)c2)C(=O)N1CCCCCCCCCS(=N)(=O)CCCC(F)(F)C(F)(F)F (stereo not drawn) [Example 46, 5,5-dimethyl-3-[4-nitro-3-(trifluoromethyl)phenyl]-1-{9-[S-(4,4,5,5,5-pentafluoropentyl)sulphonimidoyl]nonyl}imidazolidine-2,4-dione]

Compound	IC50 (LNCaP cells)	IC50 (DU145 cells)
CC1(C)C(=O)N(c2ccc([N+](=O)[O-])c(C(F)(F)F)c2)C(=O)N1CCCCCSCCCC(F)(F)C(F)(F)F [Example 4, 5,5-dimethyl-3-[4-nitro-3-(trifluoromethyl)phenyl]-1-{5-[(4,4,5,5,5-pentafluoropentyl)thio]pentyl}imidazolidine-2,4-dione]	< 2 µM	> 10 µM
CC1(C)C(=O)N(c2ccc([N+](=O)[O-])c(C(F)(F)F)c2)C(=O)N1CCCCC[S+]([O-])CCCC(F)(F)C(F)(F)F (stereo not drawn) [Example 5, 5,5-dimethyl-3-[4-nitro-3-(trifluoromethyl)phenyl]-1-{5-[(4,4,5,5,5-pentafluoropentyl)sulphinyl]pentyl}imidazolidine-2,4-dione]	< 2 µM	> 10 µM
CC1(C)C(=O)N(c2ccc([N+](=O)[O-])c(C(F)(F)F)c2)C(=O)N1CCCCCCCCCSCCC(F)(F)C(F)(F)C(F)(F)C(F)(F)F [Example 14, 5,5-dimethyl-3-[4-nitro-3-(trifluoromethyl)phenyl]-1-{9-[(3,3,4,4,5,5,6,6,6-nonafluorohexyl)thio]nonyl}imidazolidine-2,4-dione]	–	> 10 µM
CC1(C)C(=O)N(c2ccc([N+](=O)[O-])c(C(F)(F)F)c2)C(=O)N1CCCCCCCCC[S+]([O-])CCC(F)(F)C(F)(F)C(F)(F)C(F)(F)F (stereo not drawn) [Example 15, 5,5-dimethyl-3-[4-nitro-3-(trifluoromethyl)phenyl]-1-{9-[(3,3,4,4,5,5,6,6,6-nonafluorohexyl)sulphinyl]nonyl}imidazolidine-2,4-dione]	< 2 µM	> 10 µM
CC1(C)C(=O)N(c2ccc(C#N)c(C(F)(F)F)c2)C(=O)N1CCCCCCCCC[S+]([O-])CCCC(F)(F)C(F)(F)F (stereo not drawn) [Example 20, 4-(4,4-dimethyl-2,5-dioxo-3-{9-[(4,4,5,5,5-pentafluoropentyl)sulphinyl]nonyl}imidazolidin-1-yl)-2-(trifluoromethyl)benzonitrile]	< 2 µM	> 10 µM
